Where a chain is given by its changes, count along the chain named.
Legend:
Assay in all cases: two-electrode voltage clamp, Xenopus oocytes, current integral
Format in all cases: cell-based
human P2X4 [1] = target: T1, human P2X4 (Homo sapiens, UniProt Q99571); conditions: read-out: % inhibition at 250 μM
T1 sequence (Q99571 1-388): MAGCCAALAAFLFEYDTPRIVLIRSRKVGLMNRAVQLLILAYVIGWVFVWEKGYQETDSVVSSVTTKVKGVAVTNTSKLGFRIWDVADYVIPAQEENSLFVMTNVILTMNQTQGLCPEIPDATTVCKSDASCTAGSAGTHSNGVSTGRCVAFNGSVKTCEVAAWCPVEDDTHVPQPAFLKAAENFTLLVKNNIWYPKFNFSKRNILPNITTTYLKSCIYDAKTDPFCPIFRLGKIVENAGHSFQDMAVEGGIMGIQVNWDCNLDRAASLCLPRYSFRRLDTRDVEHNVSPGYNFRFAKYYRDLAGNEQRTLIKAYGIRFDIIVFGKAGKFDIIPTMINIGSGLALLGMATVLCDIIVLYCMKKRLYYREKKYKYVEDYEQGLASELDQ

human P2X4 [2] = target: T1, human P2X4
human P2X4 [3] = target: T2, human P2X4 (Homo sapiens, UniProt Q99571, E51A); conditions: read-out: % inhibition at 250 μM
T2 sequence (Q99571 1-388 E51A): T1 sequence (Q99571 1-388) with E51A

human P2X4 [4] = target: T3, human P2X4 (Homo sapiens, UniProt Q99571, W50A); conditions: read-out: % inhibition at 250 μM
T3 sequence (Q99571 1-388 W50A): T1 sequence (Q99571 1-388) with W50A

human P2X4 [5] = target: T4, human P2X4 (Homo sapiens, UniProt Q99571, D331A); conditions: read-out: % inhibition at 250 μM
T4 sequence (Q99571 1-388 D331A): T1 sequence (Q99571 1-388) with D331A

human P2X4 [6] = target: T5, human P2X4 (Homo sapiens, UniProt Q99571, M336A); conditions: read-out: % inhibition at 250 μM
T5 sequence (Q99571 1-388 M336A): T1 sequence (Q99571 1-388) with M336A

human P2X4 [7] = target: T1, human P2X4; remark: listed apart in the source

C[C@H](CCC(=O)NCCS(=O)(=O)O)[C@H]1CC[C@H]2[C@@H]3[C@H](O)C[C@@H]4C[C@H](O)CC[C@]4(C)[C@H]3CC[C@]12C [t-CDCA, tauro-chenodeoxycholic acid]
inhibition at 250 µM (human P2X4 [1]): 25 ± 9%

Nc1ncnc2c1ncn2[C@@H]1O[C@H](COP(=O)(O)OP(=O)(O)OP(=O)(O)O)[C@@H](O)[C@H]1O [ATP]
EC50 (human P2X4 [2]): 4.8 ± 1.2 µM

C[C@H](CCC(=O)O)[C@H]1CC[C@H]2[C@@H]3CC[C@@H]4C[C@H](O)CC[C@]4(C)[C@H]3C[C@H](O)[C@]12C [DCA, deoxycholic acid]
inhibition at 250 µM (human P2X4 [1]): 73 ± 2%

C[C@H](CCC(=O)NCCS(=O)(=O)O)[C@H]1CC[C@H]2[C@@H]3CC[C@@H]4C[C@H](O)CC[C@]4(C)[C@H]3C[C@H](O)[C@]12C [t-DCA, tauro-deoxycholic acid]
inhibition at 250 µM (human P2X4 [3]): 74%
inhibition at 250 µM (human P2X4 [4]): 63%
inhibition at 250 µM (human P2X4 [5]): 38%
inhibition at 250 µM (human P2X4 [6]): 22%
IC50 (human P2X4 [7]): ~160 µM

From paper PMC6572003 (The Journal of General Physiology, 2019)
